Reference: ChEMBL document CHEMBL4819112, “Design, synthesis and antitumor activity of phthalazine-1,4-dione-based menaquinone analogs” (Bioorg Med Chem Lett, 2021)
Calls of active or inactive are those of the source. No cut-off for these calls is given here.

Columns and labels:
[1] = test system: JHH7; test: (§1) Growth inhibition of human JHH7 cells measured after 24 hrs; assay type: functional, cell-based
[2] = as §1; assay type: functional, cell-based; conditions: JHH7, 24 h
[3] = test system: FLC-4; test: Growth inhibition of human FLC-4 cells measured after 24 hrs; assay type: functional, cell-based
[4] = test system: Hepatocyte; test: Growth inhibition of human hepatocytes cells upto 10 uM measured after 24 hrs; assay type: cell-based

| Compound | Activity [1] | IC50 [2] [nM] | Activity [3] | Activity [4] |
| --- | --- | --- | --- | --- |
| CC(C)=CCC/C(C)=C/CC/C(C)=C/Cn1c(=O)c2ccccc2c(=O)n1C | Active | – | – | – |
| CC(C)=CCC/C(C)=C/Cn1c(=O)c2ccccc2c(=O)n1C | – | 340 | Active | Non-Toxic |
| CC(C)=CCn1c(=O)c2ccccc2c(=O)n1C | Active | – | – | Non-Toxic |
| CC(C)=CCC/C(C)=C/CC/C(C)=C/CC/C(C)=C/Cn1c(=O)c2ccccc2c(=O)n1C | Active | – | – | – |
| C/C(=C\CC/C(C)=C/Cn1c(=O)c2ccccc2c(=O)n1C)CC/C=C(\C)CC/C=C(\C)C(=O)O | Active | – | – | – |
